According to publication PMC8268581, “Identification of 3,4-Dihydro-2H,6H-pyrimido[1,2-c][1,3]benzothiazin-6-imine Derivatives as Novel Selective Inhibitors of Plasmodium falciparum Dihydroorotate Dehydrogenase” (International Journal of Molecular Sciences, 2021):
Read-outs that look alike come from different tables or passages of the source.

Legend:
[1] = target: mammalian mitochondrial complexes I–III (Bos taurus, UniProt P00157+P03887+P17694+P42026); test: NADH-cytochrome c reductase (complexes I–III) activity assay; format: biochemical; settings: bovine heart mitochondria, range tested 0.0007 to 22.7 µM; read-out: IC50 Mammalian Mitochondrial CI–III
Experimental: Bovine heart mitochondria were prepared as previously described. The NADH-cytochrome c reductase (complexes I–III) and succinate-cytochrome c reductase (complexes II–III) activities were assayed in 384-well plates following an established protocol with small modifications. Complex I–III activity was assayed in a reaction mix containing 50 mM phosphate buffer pH 7.4, 2 mM KCN, 200 µM cytochrome c (cytochrome c from horse heart, Nacalai tesque), and 15 µg/mL mitochondria. Plates containing 1 µL serial dilutions of PfDHODH inhibitors were prepared and mixed with 38 µL of the reaction mix, as described above. The reaction was started by the addition of 5 µL of 2.6 mM NADH, and the assay was performed as described for PfDHODH, but at 550 nm and with 15 min of incubation. Complex II–III activity was assayed similarly to complex I–III activity but with 100 µM cytochrome c and 25 µg/mL mitochondria, and the reaction was started by 10 mM succinate. For both assays, DMSO and 5 µM ascochlorin were used as negative and positive controls, respectively. Assays were performed in triplicate.

HsDHODH = target: T1, HsDHODH (Homo sapiens, UniProt Q02127); test: HsDHODH counter-assay; format: biochemical; settings: purified recombinant HsDHODH, tested at 4.5 µM; read-out: IC50 DHODH Hs
T1 construct: made in house
T1 sequence (Q02127 whole entry): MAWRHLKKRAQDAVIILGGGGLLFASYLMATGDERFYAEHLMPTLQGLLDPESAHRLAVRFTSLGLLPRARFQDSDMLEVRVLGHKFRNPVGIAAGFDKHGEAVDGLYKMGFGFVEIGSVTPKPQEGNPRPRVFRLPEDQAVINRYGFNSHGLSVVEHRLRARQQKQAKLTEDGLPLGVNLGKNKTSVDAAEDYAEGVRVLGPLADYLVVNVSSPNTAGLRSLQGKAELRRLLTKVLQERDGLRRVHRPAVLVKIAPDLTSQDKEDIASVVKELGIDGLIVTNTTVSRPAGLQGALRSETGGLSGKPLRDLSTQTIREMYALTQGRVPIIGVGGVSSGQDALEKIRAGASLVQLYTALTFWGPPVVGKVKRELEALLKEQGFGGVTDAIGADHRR
Experimental: Selected hit compounds from PfDHODH screening were tested for potential inhibition against HsDHODH at 4.5 µM. The HsDHODH used in this study was purified as previously reported. The HsDHODH assay was performed similarly to that for PfDHODH, but in an assay mix consisting of 50 mM Tris-HCl pH 8.0, 0.1% (v/v) Triton X-100, 2 mM potassium cyanide (KCN, Wako), 60 µM dUQ, and 120 µM DCIP, with the reaction started by the addition of 200 µM L-DHO (final concentration) in triplicate. For this assay, DMSO was used as a negative control and 10 µM of lapachol was used as a positive control (100% inhibition). The relative inhibition was calculated as described above.

[2] = test system: P. falciparum 3D7 strain expressing the cytosolic yeast DHODH (3D7-yDHODH); test: Confirmation assay against transgenic parasite 3D7-yDHODH; format: cell-based, Plasmodium falciparum; settings: for activity at 10 µM: 72 h, relative parasite growth at 10 µM compound, read-out: Growth at 10 µM (%) Pf3D7-yDHODH; for susceptibility of Pf3D7-yDHODH parasite (in words): relative parasite growth at 10 µM, compared with wild-type 3D7
Experimental: Synchronized ring-stage parasites at 0.3% parasitemia and 2% hematocrit were cultured in a 384-well plate at 25 µL with test compounds at a final concentration in the range of 0.0003 to 10 µM with a fixed DMSO concentration of 0.4% (v/v). Parasite growth was monitored by the diaphorase-coupled P. falciparum lactate dehydrogenase (PfLDH) assay, as previously described. After 72 h, 70 µL of the assay solution (150 mM lithium L-lactate (Wako), 0.05 mg/mL 3-acetylpyridine adenine dinucleotide (Oriental Yeast Co., Ltd., Tokyo, Japan), 0.2 mg/mL nitro blue tetrazolium (Wako), 1 unit/mL diaphorase, and 100 mM Tris-HCl pH 8.0) were mixed with the parasite culture and incubated at room temperature for 40 min, and the generated nitro blue formazan was measured at 650 nm using a SpectraMax®® Paradigm®® Multi-Mode Microplate Reader. […] The EC50 was calculated using GraphPad Prism 8.0 software from the mean of quadruplets values.
The P. falciparum 3D7 strain expressing the cytosolic yeast DHODH (3D7-yDHODH) was prepared as follows. pHHyDHODH-GFP plasmid (Kerafast, Boston, MA, USA) was transfected to the P. falciparum 3D7 strain following the established transfection method. Briefly, 50 µg of plasmid dissolved in cytomix solution (120 mM KCl, 0.15 mM CaCl2, 10 mM K2HPO4/KH2PO4 pH 7.6, 25 mM HEPES-KOH pH 7.6, 2 mM ethylene glycol-bis(β-aminoethyl ether)-N,N,N′,N′-tetraacetic acid (EGTA, Dojindo), and 5 mM magnesium chloride (Wako)) was transfected into the red blood cells by the Gene Pulser Xcell (Bio-Rad). Percoll–sorbitol synchronized parasites were mixed with red blood cells containing plasmid and maintained under 5 nM WR99210 for 2 weeks. The growth of resistant parasites against DSM265 and atovaquone, as PfDHODH and complex III inhibitors respectively, was confirmed by PfLDH/diaphorase assay. A total of 10 µM PfDHODH inhibitors were tested against wild-type 3D7 and 3D7-yDHODH following the method described above in triplicate. The significance of difference between the inhibition of the two parasite strains was evaluated by Student’s t-test (Figure S4).

PfDHODH = target: T2, PfDHODH (Plasmodium falciparum, UniProt Q08210); test: PfDHODH inhibition assay (DCIP end-point, 384-well); format: biochemical
T2 construct: encoding amino acid residues 158 to 569 fused to a His6-SUMO tag in its N-terminus; His6-SUMO (N, cleaved yes); made in house; host or cells: E. coli BL21 Star (DE3), pETSUMO/PfDHODH
T2 sequence (Q08210 158-569): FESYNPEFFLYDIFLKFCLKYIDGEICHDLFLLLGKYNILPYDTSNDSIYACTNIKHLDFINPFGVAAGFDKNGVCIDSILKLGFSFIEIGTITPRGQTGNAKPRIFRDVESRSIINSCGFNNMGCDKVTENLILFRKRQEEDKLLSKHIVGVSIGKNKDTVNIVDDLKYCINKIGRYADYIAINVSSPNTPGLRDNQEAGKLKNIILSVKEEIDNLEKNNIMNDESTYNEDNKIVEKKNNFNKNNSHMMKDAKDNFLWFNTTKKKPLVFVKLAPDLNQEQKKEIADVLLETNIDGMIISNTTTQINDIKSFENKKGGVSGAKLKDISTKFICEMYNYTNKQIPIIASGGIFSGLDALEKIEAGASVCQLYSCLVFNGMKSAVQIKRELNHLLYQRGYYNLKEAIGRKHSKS
Experimental: The screening of 40,400 compounds was conducted in 384-well plates by adapting the end-point assay reported before. First, 1 µL of 200 µM compound was transferred into 384-well plates using a Benchtop Multi-Pipetter EDR-384SR (Biotech Co., Ltd., Tokyo, Japan). […] Next, 38 µL of assay mix (100 mM HEPES-NaOH pH 7.5, 5% (v/v) glycerol, 150 mM NaCl, 0.05% (v/v) Triton X-100, 15 µM decylubiquinone (dUQ, Sigma), 120 µM 2,6-dichlorophenolindophenol (DCIP, Sigma), and 20 nM PfDHODH) were dispensed into all wells and mixed at 600 rpm for 1 min by a MixMate®® (Eppendorf). The reaction was started by the addition of 5 µL of 1.8 mM L-DHO (Sigma) as the substrate and mixed as described above for 20 s. The absorbance at 600 nm was recorded using a SpectraMax®® Paradigm®® Multi-Mode Microplate Reader (Molecular Devices) before (t0) and after 20 min (t20) incubation at room temperature. The readings at t0 were subtracted from t20, and PfDHODH inhibition was calculated as the inhibition relative to the negative and positive controls in a single-point assay. Hits were defined as compounds inhibiting more than 50% of PfDHODH activity at 4.5 µM. The quality of the screening system was evaluated by calculating statistical parameters: Z′-factor, S/N, S/B, SW, and CV, as previously reported. The IC50 values of the hit compounds were determined using the same assay system containing serial dilutions of each compound in triplicates (22.7, 6.8, 2.27, 0.68, 0.227, 0.068, 0.023, 0.007, 0.002, 0.0007 µM) using GraphPad Prism 8.0 software (GraphPad Software Inc., San Diego, CA, USA).

[3] = recombinant tag-free PfDHODH, 20 min, serial dilutions 0.0007-22.7 µM, read-out: IC50 DHODH Pf

Structure (SMILES) | IC50 [1] [µM] | IC50 (HsDHODH) [µM] | activity at 10 µM [2] [%] | IC50 (PfDHODH; [3]) [nM] | susceptibility of Pf3D7-yDHODH parasite (in words) [2] | IC50 (PfDHODH) [nM] | fold increase in the PfDHODH IC50 compared to 1 (PfDHODH) [fold]
N=C1Sc2cc(-c3ccc4ccccc4c3)ccc2C2=NCCCN12 [Compound 1] | > 22.7 | > 4.5 | -0.62 ± 0.07 | 650 ± 50 | – | – | –
N=C1Sc2cc(-c3ccc4c(c3)OCO4)ccc2C2=NCCCN12 [Compound 3] | > 22.7 | > 4.5 | -0.23 ± 0.01 | 1180 ± 40 | – | – | –
N=C1Sc2cc(-c3ccc4c(c3)OCCO4)ccc2C2=NCCCN12 [Compound 4] | > 22.7 | > 4.5 | 24 ± 5.76 | 970 ± 80 | – | – | –
N=C1Sc2cc(-c3ccc4cnccc4c3)ccc2C2=NCCCN12 [Compound 5] | > 22.7 | > 4.5 | 26 ± 8.27 | 960 ± 90 | – | – | –
N=C1Sc2cc(-c3ccc4c(C(=O)OC(F)(F)F)c[nH]c4c3)ccc2C2=NCCCN12 [Compound 6] | > 22.7 | > 4.5 | 104.4 ± 0.11 | 700 ± 40 | reduced susceptibility | – | –
N=C1Sc2cc(-c3cc4ccccc4o3)ccc2C2=NCCCN12 [Compound 7] | > 22.7 | > 4.5 | 36.2 ± 1.01 | 1300 ± 50 | – | – | –
N=C1Sc2cc(/C=C/c3ccccc3)ccc2C2=NCCCN12 [Compound 8] | > 22.7 | > 4.5 | 0.12 ± 0.21 | – | – | 1070 ± 50 | –
CC(C)(C)N=C1Sc2cc(-c3cc4ccccc4s3)ccc2C2=NCCCN12 [Compound 10] | > 22.7 | > 4.5 | -0.48 ± 0.07 | 3840 ± 90 | – | – | 6
N=C1Sc2cc(-c3ccccc3)ccc2C2=NCCCN12 [Compound 12] | > 22.7 | > 4.5 | -0.22 ± 0.12 | 680 ± 50 | – | – | –
COC(=O)c1ccc(-c2ccc3c(c2)SC(=N)N2CCCN=C32)cc1 [Compound 13] | > 22.7 | > 4.5 | 70.5 ± 0.73 | 1220 ± 50 | reduced susceptibility | – | –
N#Cc1ccc(-c2ccc3c(c2)SC(=N)N2CCCN=C32)cc1 [Compound 14] | > 22.7 | > 4.5 | 105 ± 0.47 | 3890 ± 230 | reduced susceptibility | – | –
N=C1Sc2cc(-c3ccc(C(F)(F)F)cc3)ccc2C2=NCCCN12 [Compound 15] | > 22.7 | > 4.5 | -0.38 ± 0.17 | 2310 ± 110 | – | – | –
CSc1ccc(-c2ccc3c(c2)SC(=N)N2CCCN=C32)cc1 [Compound 17] | > 22.7 | > 4.5 | -0.5 ± 0.01 | 960 ± 70 | – | – | –
